Assays:
Type in all cases: functional
Bos taurus [1] = organism: Bos taurus; test: Carboxymethylation of bovine brain tubulin pre-incubated with 17 mol compound per mol tubulin
Bos taurus [2] = organism: Bos taurus; test: Carboxymethylation of bovine brain tubulin pre-incubated with 69 mol compound per mol tubulin
Bos taurus [3] = organism: Bos taurus; test: Carboxymethylation of bovine brain tubulin pre-incubated with 0 mol compound per mol tubulin
Bos taurus [4] = organism: Bos taurus; test: Carboxymethylation of bovine brain tubulin pre-incubated with 8.6 mol compound per mol tubulin
Bos taurus [5] = organism: Bos taurus; test: Carboxymethylation of bovine brain tubulin pre-incubated with 86 mol compound per mol tubulin
Bos taurus [6] = organism: Bos taurus; test: Carboxymethylation of bovine brain tubulin pre-incubated with 34 mol compound per mol tubulin

## CC1=CC(=O)C(=O)C2=C1O[C@@]1(C2)[C@@H](C)CC[C@@H]2[C@@]3(C)CC[C@H](O)C(C)(C)C3CC[C@]21C (stereo partly specified) [STYPOLDIONE]
Bos taurus [1]
  Ratio_[3H]:tubulin: 16
Bos taurus [2]
  Ratio_[3H]:tubulin: 4.8
Bos taurus [3]
  Ratio_[3H]:tubulin: 20
Bos taurus [4]
  Ratio_[3H]:tubulin: 22
Bos taurus [5]
  Ratio_[3H]:tubulin: 4.3
Bos taurus [6]
  Ratio_[3H]:tubulin: 12

— ChEMBL document CHEMBL1123224, “Mechanism of action of the marine natural product stypoldione: evidence for reaction with sulfhydryl groups” (1986)
